Measured values taken from patent US20050112573A1, “Method of detecting toxic substance” (priority 2001, published 2005).

Test system: yeast genes (level of expressed mRNA)
Assay: DNA chip analysis of expressed mRNA of yeast genes after 2 h culture with a toxic chemical substance
Type: cell-based, Saccharomyces cerevisiae S288C
Procedure: Yeast (Saccharomyces cerevtisiae S288C (α SUC2mal mel gap2 CUP1)) were cultured at 25° C. on YPD medium (yeast extract 1%, polypepton 2%, glucose 2%). One of toxic chemical substances was added to the cell at logarithmic growth phase, and the cell was further cultured for two hours. Cell was cultured without any chemical substance in the same condition, and was used as control. Concentrations of the chemical substances were defined to inhibit the growth of the yeast but not lead to death.
After the completion of cultivation, the culture was centrifuged to collect the cells. To the cells, sodium acetate buffer (50 mM sodium acetate, 10 mM EDTA, 1% SDS) was added, and the mixture was shaken at 65° C. for five minutes, followed by returning to room temperature, and obtaining the supernatant, which procedure was repeated two times. To the supernatant, ½ amount of a solution of phenol/chloroform was added, and the mixture was centrifuged to give a supernatant, which was added with an equal amount of chloroform, and the mixture was centrifuged to give a supernatant. To the supernatant, an equal amount of isopropanol containing 0.3 M sodium acetate was added, and the mixture was allowed to stand at room temperature for 30 minutes, after which the mixture was centrifuged to give a sediment of the whole RNAs. Seventy % ethanol was added to the sediment, and the mixture was again centrifuged to give a sediment, which was then dried and dissolved in water. mRNA was isolated from the whole RNAs as followings. In view of the fact that a poly A chain is attached to the 3′ terminus of mRNA, a polynucleotide having a poly T structure which was immobilized on the surface of latex beads was used to trap the mRNA, and then the mRNA was washed and eluted with spine column (Oligotex-dT30<Super>mRNA Purification Kit, Takara). Reverse transcription of the mRNA was conducted with a reverse transcriptase (Super Script II Reverse Transcriptase; catalogue No. 18064-014, GibcoBRL) using fluorescence-labeled nucleotides to give cDNAs that were introduced with Cy3-dUTP or Cy5-dUTP during the reverse transcription.
The labeled cDNAs were dissolved in TE buffer (10 mM Tris-HCl/1 mM EDTA, pH8.0), and the solution was dropped on the DNA chip containing the whole genes of yeast (DNA Chip Research Inc. Japan) so that the cDNAs were hybridized on the DNA chip at 65° C. for over 12 hours. The fluoresces intensity of the DNA chip was read with a scanner, and the ratio relative to the fluorescence intensity resulting from the absence of chemical substance was estimated as the following, which is shown in Tables 1 to 9: [formula]
In the Tables, “Intensity” indicated in the rightmost column is a value of the level of expressed mRNA of each gene in control cells as divided by the average level of the expressions of the whole genes.

## N#Cc1c(Cl)c(Cl)c(Cl)c(C#N)c1Cl [(9), 2,4,5,6-tetrachloro-1,3-benzenedicarbonitrile]
Yeast gene YAR010C
  The level of expressed mRNA in the presence of chemical substance/The level of expressed mRNA in the absence of chemical substance: 1.2
Yeast gene YBL005W-A
  The level of expressed mRNA in the presence of chemical substance/The level of expressed mRNA in the absence of chemical substance: 0.8
Yeast gene YBL041W
  The level of expressed mRNA in the presence of chemical substance/The level of expressed mRNA in the absence of chemical substance: 2.8
Yeast gene YBL043W
  The level of expressed mRNA in the presence of chemical substance/The level of expressed mRNA in the absence of chemical substance: 0.5
Yeast gene YBL078C
  The level of expressed mRNA in the presence of chemical substance/The level of expressed mRNA in the absence of chemical substance: 12.3
Yeast gene YBR214W
  The level of expressed mRNA in the presence of chemical substance/The level of expressed mRNA in the absence of chemical substance: 2.2
Yeast gene YCL020W
  The level of expressed mRNA in the presence of chemical substance/The level of expressed mRNA in the absence of chemical substance: 0.9
Yeast gene YCL027W
  The level of expressed mRNA in the presence of chemical substance/The level of expressed mRNA in the absence of chemical substance: 0.7
Yeast gene YCR004C
  The level of expressed mRNA in the presence of chemical substance/The level of expressed mRNA in the absence of chemical substance: 4.7
Yeast gene YCR071C
  The level of expressed mRNA in the presence of chemical substance/The level of expressed mRNA in the absence of chemical substance: 0.6
Yeast gene YCR088W
  The level of expressed mRNA in the presence of chemical substance/The level of expressed mRNA in the absence of chemical substance: 0.8
Yeast gene YDL008W
  The level of expressed mRNA in the presence of chemical substance/The level of expressed mRNA in the absence of chemical substance: 2.3
Yeast gene YDL238C
  The level of expressed mRNA in the presence of chemical substance/The level of expressed mRNA in the absence of chemical substance: 1.7
Yeast gene YDR055W
  The level of expressed mRNA in the presence of chemical substance/The level of expressed mRNA in the absence of chemical substance: 0.8
Yeast gene YDR084C
  The level of expressed mRNA in the presence of chemical substance/The level of expressed mRNA in the absence of chemical substance: 0.6
Yeast gene YDR085C
  The level of expressed mRNA in the presence of chemical substance/The level of expressed mRNA in the absence of chemical substance: 0.4
Yeast gene YDR104C
  The level of expressed mRNA in the presence of chemical substance/The level of expressed mRNA in the absence of chemical substance: 2.8
Yeast gene YDR115W
  The level of expressed mRNA in the presence of chemical substance/The level of expressed mRNA in the absence of chemical substance: 1.1
Yeast gene YDR259C
  The level of expressed mRNA in the presence of chemical substance/The level of expressed mRNA in the absence of chemical substance: 1.0
Yeast gene YDR315C
  The level of expressed mRNA in the presence of chemical substance/The level of expressed mRNA in the absence of chemical substance: 1.1
Yeast gene YDR358W
  The level of expressed mRNA in the presence of chemical substance/The level of expressed mRNA in the absence of chemical substance: 2.9
Yeast gene YDR388W
  The level of expressed mRNA in the presence of chemical substance/The level of expressed mRNA in the absence of chemical substance: 1.4
Yeast gene YDR432W
  The level of expressed mRNA in the presence of chemical substance/The level of expressed mRNA in the absence of chemical substance: 0.7
Yeast gene YDR481C
  The level of expressed mRNA in the presence of chemical substance/The level of expressed mRNA in the absence of chemical substance: 1.9
Yeast gene YDR510W
  The level of expressed mRNA in the presence of chemical substance/The level of expressed mRNA in the absence of chemical substance: 2.7
Yeast gene YEL042W
  The level of expressed mRNA in the presence of chemical substance/The level of expressed mRNA in the absence of chemical substance: 0.2
Yeast gene YEL066W
  The level of expressed mRNA in the presence of chemical substance/The level of expressed mRNA in the absence of chemical substance: 1.3
Yeast gene YER039C
  The level of expressed mRNA in the presence of chemical substance/The level of expressed mRNA in the absence of chemical substance: 1.2
Yeast gene YER107C
  The level of expressed mRNA in the presence of chemical substance/The level of expressed mRNA in the absence of chemical substance: 0.4
Yeast gene YER130C
  The level of expressed mRNA in the presence of chemical substance/The level of expressed mRNA in the absence of chemical substance: 0.5
Yeast gene YFL028C
  The level of expressed mRNA in the presence of chemical substance/The level of expressed mRNA in the absence of chemical substance: 2.7
Yeast gene YFL043C
  The level of expressed mRNA in the presence of chemical substance/The level of expressed mRNA in the absence of chemical substance: 2.2
Yeast gene YGL229C
  The level of expressed mRNA in the presence of chemical substance/The level of expressed mRNA in the absence of chemical substance: 1.8
Yeast gene YGR136W
  The level of expressed mRNA in the presence of chemical substance/The level of expressed mRNA in the absence of chemical substance: 2.1
Yeast gene YGR189C
  The level of expressed mRNA in the presence of chemical substance/The level of expressed mRNA in the absence of chemical substance: 0.3
Yeast gene YGR213C
  The level of expressed mRNA in the presence of chemical substance/The level of expressed mRNA in the absence of chemical substance: 7.5
Yeast gene YGR257C
  The level of expressed mRNA in the presence of chemical substance/The level of expressed mRNA in the absence of chemical substance: 1.5
Yeast gene YHR004C
  The level of expressed mRNA in the presence of chemical substance/The level of expressed mRNA in the absence of chemical substance: 1.1
Yeast gene YHR071W
  The level of expressed mRNA in the presence of chemical substance/The level of expressed mRNA in the absence of chemical substance: 1.0
Yeast gene YHR139C
  The level of expressed mRNA in the presence of chemical substance/The level of expressed mRNA in the absence of chemical substance: 107.2
Yeast gene YHR142W
  The level of expressed mRNA in the presence of chemical substance/The level of expressed mRNA in the absence of chemical substance: 0.4
Yeast gene YIL123W
  The level of expressed mRNA in the presence of chemical substance/The level of expressed mRNA in the absence of chemical substance: 0.1
Yeast gene YIL140W
  The level of expressed mRNA in the presence of chemical substance/The level of expressed mRNA in the absence of chemical substance: 0.7
Yeast gene YJL073W
  The level of expressed mRNA in the presence of chemical substance/The level of expressed mRNA in the absence of chemical substance: 1.7
Yeast gene YJL089W
  The level of expressed mRNA in the presence of chemical substance/The level of expressed mRNA in the absence of chemical substance: 1.6
Yeast gene YJL116C
  The level of expressed mRNA in the presence of chemical substance/The level of expressed mRNA in the absence of chemical substance: 2.4
Yeast gene YJR004C
  The level of expressed mRNA in the presence of chemical substance/The level of expressed mRNA in the absence of chemical substance: 0.3
Yeast gene YJR086W
  The level of expressed mRNA in the presence of chemical substance/The level of expressed mRNA in the absence of chemical substance: 1.4
Yeast gene YKL008C
  The level of expressed mRNA in the presence of chemical substance/The level of expressed mRNA in the absence of chemical substance: 0.3
Yeast gene YKL013C
  The level of expressed mRNA in the presence of chemical substance/The level of expressed mRNA in the absence of chemical substance: 1.5
